Assay [1] addresses Estrogen receptor beta (Homo sapiens) (UniProt Q92731). In words: Displacement of E2-Alexa633 from GFP-tagged ERbeta expressed in COS7 cells at 1 uM by FACS. The assay is classed as cell-based. The settings on record: COS-7. On the technique in general: In flow cytometry, cells or beads pass a laser one at a time.
The target is the same in assay [2]. The experiment in a line: Agonist activity at GFP-tagged ERbeta expressed in COS7 cells assessed as PI3K activation at 10 nM by PIP3 nuclear accumulation assay. The assay is classed as functional, cell-based. The settings on record: COS-7.

The results in this text go back to ChEMBL document CHEMBL1221181, “Virtual and biomolecular screening converge on a selective agonist for GPR30” (Nat Chem Biol, 2006).

Each structure is given as a SMILES string. Activity calls are given as the source filed them. The rule behind the calls is not given here.

Estrogen receptor beta (Homo sapiens), sequence (Q92731 whole entry): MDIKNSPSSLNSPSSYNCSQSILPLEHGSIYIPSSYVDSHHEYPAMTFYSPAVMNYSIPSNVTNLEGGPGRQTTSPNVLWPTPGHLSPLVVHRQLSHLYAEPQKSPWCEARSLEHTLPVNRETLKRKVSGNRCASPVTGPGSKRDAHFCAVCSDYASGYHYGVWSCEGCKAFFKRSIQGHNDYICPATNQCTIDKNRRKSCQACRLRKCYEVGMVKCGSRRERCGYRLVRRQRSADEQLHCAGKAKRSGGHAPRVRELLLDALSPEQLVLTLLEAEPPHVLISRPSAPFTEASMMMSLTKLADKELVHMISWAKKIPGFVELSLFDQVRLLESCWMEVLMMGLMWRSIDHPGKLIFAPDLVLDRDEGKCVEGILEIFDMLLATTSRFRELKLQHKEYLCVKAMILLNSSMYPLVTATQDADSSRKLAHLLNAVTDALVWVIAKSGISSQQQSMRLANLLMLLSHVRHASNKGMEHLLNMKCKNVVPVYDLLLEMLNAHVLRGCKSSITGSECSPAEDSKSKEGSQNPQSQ

For the compound `CC(=O)c1ccc2c(c1)[C@@H]1C=CC[C@@H]1[C@H](c1cc3c(cc1Br)OCO3)N2`, the result in assay [1] and in assay [2] was inactive.
